According to ChEMBL document CHEMBL4190312, “Tau protein aggregation in Alzheimer's disease: An attractive target for the development of novel therapeutic agents” (Eur J Med Chem, 2017):

How the values were obtained:
[1] = species: Homo sapiens; test: Selectivity index, ratio of Ki for human beta-hexosaminidase A to Ki for human O-GlcNAcase
[2] = species: Homo sapiens; test: Selectivity index, ratio of Ki for human beta-hexosaminidase B to Ki for human O-GlcNAcase
[3] = target: T1, Protein O-GlcNAcase (Homo sapiens, UniProt O60502); test: Competitive inhibition of human O-GlcNAcase by Lineweaver-Burk analysis
T1 sequence (O60502 whole entry): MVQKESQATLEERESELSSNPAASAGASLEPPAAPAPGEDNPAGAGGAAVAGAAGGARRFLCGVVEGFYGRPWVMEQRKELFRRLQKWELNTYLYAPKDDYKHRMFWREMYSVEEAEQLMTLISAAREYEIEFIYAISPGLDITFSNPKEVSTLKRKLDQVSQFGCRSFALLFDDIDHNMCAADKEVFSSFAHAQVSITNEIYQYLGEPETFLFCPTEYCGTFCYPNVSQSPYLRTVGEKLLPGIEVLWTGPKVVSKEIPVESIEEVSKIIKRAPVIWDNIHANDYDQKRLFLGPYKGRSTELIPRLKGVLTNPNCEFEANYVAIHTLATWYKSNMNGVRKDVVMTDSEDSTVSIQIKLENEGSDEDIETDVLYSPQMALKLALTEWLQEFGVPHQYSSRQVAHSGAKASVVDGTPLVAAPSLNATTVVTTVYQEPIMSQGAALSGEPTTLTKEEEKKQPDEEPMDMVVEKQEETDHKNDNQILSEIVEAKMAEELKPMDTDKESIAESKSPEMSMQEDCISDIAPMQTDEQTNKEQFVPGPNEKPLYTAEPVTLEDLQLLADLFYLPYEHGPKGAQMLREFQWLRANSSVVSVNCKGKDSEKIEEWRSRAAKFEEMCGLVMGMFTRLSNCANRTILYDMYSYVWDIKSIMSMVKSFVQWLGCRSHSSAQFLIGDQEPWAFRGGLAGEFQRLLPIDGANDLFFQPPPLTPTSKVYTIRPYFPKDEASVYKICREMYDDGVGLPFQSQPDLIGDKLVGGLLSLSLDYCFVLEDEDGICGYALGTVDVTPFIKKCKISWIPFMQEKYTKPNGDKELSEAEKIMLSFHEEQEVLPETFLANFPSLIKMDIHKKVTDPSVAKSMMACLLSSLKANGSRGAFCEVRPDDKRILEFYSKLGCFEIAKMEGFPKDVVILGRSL

Ratio Ki [1]: 900000
Ratio Ki [2]: 900000
Ki [3]: 4.1 nM
Compound: C=C/C=C/C(=O)N[C@H]1c2nc(CCc3ccccc3)cn2[C@H](CO)[C@@H](O)[C@@H]1O
